{"source": "PubChem BioAssay AID248", "about": "(DTP/NCI, 2004)", "system": "L1210 leukemia ip in BDF1 mice, survival T/C", "assay": "NCI In Vivo Anticancer Drug Screen. Data for tumor model L1210 Leukemia (intraperitoneal) in B6D2F1 (BDF1) mice", "details": "endpoint: mean survival time, higher = longer survival", "how_it_was_run": "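Each compound was tested against a transplantable tumor grown in mice. The endpoint was survival, with treated animals benchmarked against vehicle controls as a simple ratio.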", "key": {"[1]": {"details": "dose: 100.0 mg/kg/injection, schedule: Q04DX002 (ip), vehicle: Klucel (hydroxypropylcellulose) (HPC)"}, "[2]": {"details": "dose: 200.0 mg/kg/injection, schedule: Q04DX002 (ip), vehicle: Klucel (hydroxypropylcellulose) (HPC)"}}, "note": "Inconclusive results and toxic doses are left out.", "data": [{"smiles": "Cc1cc(C)c2c(c1)C/C2=N/N=C1/Cc2cc(C)cc(C)c21", "values": [{"measurement": "T/C", "setting": "dose: 50.0 mg/kg/injection, schedule: Q04DX002 (ip), vehicle: Klucel (hydroxypropylcellulose) (HPC)", "result": "120 % of control"}, {"measurement": "T/C", "setting": "[1]", "result": "100 % of control"}, {"measurement": "T/C", "setting": "[2]", "result": "92 % of control"}]}, {"smiles": "COc1cccc2c1CCC1C2CCC2(O)CC(=O)CCC12C", "note": "(configuration not stated)", "values": [{"measurement": "T/C", "setting": "dose: 100.0 mg/kg/injection, schedule: Q04DX003 (sc), vehicle: steriod suspending solution", "result": "115 % of control"}, {"measurement": "T/C", "setting": "dose: 200.0 mg/kg/injection, schedule: Q04DX003 (sc), vehicle: steriod suspending solution", "result": "113 % of control"}, {"measurement": "T/C", "setting": "dose: 400.0 mg/kg/injection, schedule: Q04DX003 (sc), vehicle: steriod suspending solution", "result": "113 % of control"}]}, {"smiles": "N=C(N=c1cc(C(=O)NC(=N)NC(=N)Nc2ccccc2)n(C(=N)NC(=N)Nc2ccccc2)c(C(=O)NC(=N)NC(=N)Nc2ccccc2)c1)NC(=N)Nc1ccccc1", "values": [{"measurement": "T/C", "setting": "dose: 100.0 mg/kg/injection, schedule: Q01DX009 (ip), vehicle: saline", "result": "105 % of control"}, {"measurement": "T/C", "setting": "dose: 200.0 mg/kg/injection, schedule: Q01DX009 (ip), vehicle: saline", "result": "94 % of control"}, {"measurement": "T/C", "setting": "dose: 400.0 mg/kg/injection, schedule: Q01DX009 (ip), vehicle: saline", "result": "87 % of control"}]}, {"smiles": "CC(=O)Nc1ccccc1-c1ccc([N+](=O)[O-])cc1", "values": [{"measurement": "T/C", "setting": "dose: 100.0 mg/kg/injection, schedule: Q04DX003 (ip), vehicle: saline with Tween-80", "result": "110 % of control"}, {"measurement": "T/C", "setting": "dose: 200.0 mg/kg/injection, schedule: Q04DX003 (ip), vehicle: saline with Tween-80", "result": "101 % of control"}, {"measurement": "T/C", "setting": "dose: 400.0 mg/kg/injection, schedule: Q04DX003 (ip), vehicle: saline with Tween-80", "result": "101 % of control"}]}, {"smiles": "COc1ccc(N)cc1", "values": [{"measurement": "T/C", "setting": "dose: 100.0 mg/kg/injection, schedule: Q01DX009 (ip), vehicle: alcohol", "result": "121 % of control"}, {"measurement": "T/C", "setting": "dose: 200.0 mg/kg/injection, schedule: Q01DX009 (ip), vehicle: alcohol", "result": "88 % of control"}]}, {"smiles": "O=C(Nc1ccccc1)/C(Cl)=C/O", "values": [{"measurement": "T/C", "setting": "[1]", "result": "91 % of control"}, {"measurement": "T/C", "setting": "[2]", "result": "94 % of control"}, {"measurement": "T/C", "setting": "dose: 400.0 mg/kg/injection, schedule: Q04DX002 (ip), vehicle: Klucel (hydroxypropylcellulose) (HPC)", "result": "97 % of control"}]}]}
